Earlier results as cited in patent US5866682A (priority 1997, dated 1999).

Tested on: α3β2 and α3β4 receptors

In the case of α-conotoxin MII, the “binding sites and toxin molecules required to block function” value is listed as “has two binding sites on α3β2 and α3β4 receptors expressed in Xenopus oocytes and only one toxin molecule is required to block function”, the “block of native nAChRs” value is listed as “blocks native α3β2-containing nAChRs and α3β4 conataining nAChRs” and the “discrimination between the α3β2 and α3β4 interface” value is listed as “four orders-of-magnitude”.
